Measurements taken from patent EP0627444B1, “Monoacetic derivatives of the peptides leu-phe-ala and ala-leu-phe and their use in identifying and destroying tumour cells, viruses and virus-carrying cells” (priority 1993, dated 1998).
Values joined by “and” are separate entries in the source; they are usually repeats but may differ in a detail not shown here. Identical values can stand only once.

Assays:
NK lymphocytes = assay: Activation test for NK lymphocytes assessed by means of rosette formation; assay type: in vivo, female mice belonging to BALB/C strain; settings: Lot B controls, muramyl dipeptide only
Procedure: In carrying out such a test, all six isomers of the monoacetic derivative of the peptide were used, individually, both in normoergic (germ free) animals (lot A) and in animals previously immunized with muramyl dipeptide (lot B). The method and results of the test are hereinafter reported.
A number of groups, each consisting of 18 randomized animals, were inoculated with 0.1 ml/each of normal saline solution (controls) or 0.1 ml/each of monoacetic peptide in its 6 possible isomers dissolved in normal saline solution. The 17.5 mg/kg dose administered to the animals corresponds to 1/20 of the LD found with respect to these peptides.
Treated and control animals were sacrificed in groups of 6 on the 11th, 13th and 18th day after the inoculation of the normal saline solution or of the peptide. […]
Cell survival was assessed by means of the supravital staining technique with trypan blue. […]
FCS, at a 10% ratio, was added to the above mentioned suspension. Following 5 minutes of incubation at +37 °C and 5 minutes of centrifugation at 200 rpm, the samples were incubated at +4 °C for 18 hours prior to reading the results.
The lymphocytes encircled by 3 or more ram's erythrocytes were considered as rosette-forming lymphocytes. The significance was assessed by means of Student's "T" test. […]

Lewis Lung Carcinoma = assay: Lewis Lung Carcinoma, third set of experiments (with MDP); assay type: in vivo, female mice C57BI/6
Procedure: The tested compound was Ala-Leu-Phe = P1 (SF080) (17.5 mg/kg) in the model of tumour disease caused by Lewis Lung Carcinoma. The compound was also evaluated in combination with muramyl dipeptide (MDP).
Animals: female mice C57BI/6 (Charles River) the average weight of which was 20g were used. The experiment involved overall 48 mice.
The tumour cells of LLC were obtained from the fourth passage of tumour cells. The total number of cells was 2 x 10^5 in 0.1 ml of Hanks solution. The cells were injected subcutaneously into axillary region.
The peptide P1 was administered i.p. in suspension with propylenglycol (0.1 ml/50 ml) in physiological solution. […] The same way of administration as in tested animals (i.p.) was used.
The animals were divided into 4 groups each having 12 mice. In groups 2 and 3 MDP was administered subcutaneously in a dose of 100 µg (0.5 ml physiol. solution per mouse). The protocol of the test is as follows.
The animals in all groups were observed daily for tumour growth. In the control group the tumour growth was so rapid and the animals were in such a condition that the experiment was terminated after 18 days from the administration of tumour cells. Mice were sacrificed and tumour mass was excised and weighed. Both lobes of lungs were inspected for the presence of metastases.
The following parameters have been evaluated in this experiment: • a) the percentage of animals not having the tumour • b) the average weight of the tumour • c) the percentage of animals with metastases in lungs • d) the average number of metastases in case of positive animals
Statistical analysis was performed by the method of one factorial analysis of variance (ANOVA), Dunnett's test and chi-square test. […]

[1] = group 2: MDP 100 µg s.c. day -3, day 18

In the case of muramyl dipeptide [MDP], the “rosette formation after preventive immunization” value (NK lymphocytes) is reported as “significant decrement”, the “Weight of tumours, AVG” value (Lewis Lung Carcinoma; [1]) is reported as 3.24 g and the “Weight of tumours, SUM” value (Lewis Lung Carcinoma; [1]) is reported as 29.16 g. For the same substance, the “average number of metastases, AVG” value (Lewis Lung Carcinoma; [1]) was 1, the metastase free animals (Lewis Lung Carcinoma; [1]) was 64% and the “number of metastases, SUM” value (Lewis Lung Carcinoma; [1]) was 9. The tumour-free animals (Lewis Lung Carcinoma; [1]) was 18%, the “number of metastases (meta)” value (Lewis Lung Carcinoma; individual animals, lungs, group 2: MDP 100 µg s.c. day -3, day 18) was 1 and 3 (2×) and 0 (7×) and 2 and the Weight of tumours (Lewis Lung Carcinoma; individual animals, group 2: MDP 100 µg subcutaneously day -3, 18 days after tumour cells) was 4.88 g and 4.48 g and 1.97 g and 3.13 g and 0 g (2×) and 3.57 g and 2.72 g and 1.81 g and 4.11 g and 2.49 g.
